The structures appear in SMILES notation.

Common to all, as to assay type: biochemical
The target in one experiment is T1, human IP6K2 (Homo sapiens, UniProt Q9UHH9).
T1 construct: human IP6K2 (1-426) gene; GST; made in house; host or cells: Sf-9 insect cells
T1 sequence (Q9UHH9 1-426): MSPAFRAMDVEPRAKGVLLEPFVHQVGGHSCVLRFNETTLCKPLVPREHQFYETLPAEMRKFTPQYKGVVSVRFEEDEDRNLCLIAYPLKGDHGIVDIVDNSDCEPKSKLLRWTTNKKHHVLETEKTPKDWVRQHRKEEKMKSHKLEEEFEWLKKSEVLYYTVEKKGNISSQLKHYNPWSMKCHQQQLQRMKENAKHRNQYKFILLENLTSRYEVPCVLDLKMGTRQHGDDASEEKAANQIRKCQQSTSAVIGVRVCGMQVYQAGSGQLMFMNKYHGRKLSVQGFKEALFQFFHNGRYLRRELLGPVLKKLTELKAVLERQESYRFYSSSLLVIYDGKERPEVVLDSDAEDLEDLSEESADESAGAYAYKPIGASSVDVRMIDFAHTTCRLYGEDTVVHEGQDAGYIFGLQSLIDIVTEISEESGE
The experiment can be described thus: IP6K enzyme inhibitory assay (ADP-Glo Kinase Assay), human IP6K2. The note with it: compound concentration 0.1 μM; read-out: ADP-Glo method inhibitory rate (%) human IP6K2. The procedure, abridged: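 The inhibitory activity against human IP6K2 was measured with Promega's ADP-Glo Kinase Assay in 384 well plates. Test compound, diluted in assay buffer (20 mM HEPES (pH 7.5), 6 mM MgCl2, 0.01% Tween-20, 1 mM DTT), was added at 2 μL. Adding 2 μL of diluted enzyme started the reaction, which ran for 60 min at room temperature. Next, 3 μL ADP-Glo solution (30 min) and 6 μL Kinase-Detection solution (60 min) were added, and luminescence was read on an Envision plate reader.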
(In general: ADP-Glo turns the ADP formed in a reaction into a luminescent signal.)

Another experiment has as its target T2, human IP6K3 (Homo sapiens, UniProt Q96PC2).
T2 construct: human IP6K3 (1-410) gene; made in house; host or cells: BL21 (DE3) Escherichia coli
T2 sequence (Q96PC2 1-410): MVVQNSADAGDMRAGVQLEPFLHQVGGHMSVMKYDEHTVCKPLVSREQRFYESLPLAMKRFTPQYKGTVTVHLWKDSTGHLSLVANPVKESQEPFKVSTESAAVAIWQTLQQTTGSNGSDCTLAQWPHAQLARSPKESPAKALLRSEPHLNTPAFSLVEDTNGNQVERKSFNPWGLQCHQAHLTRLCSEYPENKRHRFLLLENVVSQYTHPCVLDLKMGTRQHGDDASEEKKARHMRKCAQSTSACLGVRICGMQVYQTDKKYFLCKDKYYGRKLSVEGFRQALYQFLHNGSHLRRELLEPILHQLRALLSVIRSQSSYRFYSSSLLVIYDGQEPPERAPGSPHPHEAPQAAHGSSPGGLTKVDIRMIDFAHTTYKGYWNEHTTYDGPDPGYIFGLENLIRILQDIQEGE
Briefly: IP6K enzyme inhibitory assay (ADP-Glo Kinase Assay), human IP6K3. The conditions noted are these: compound concentration 0.1 μM; read-out: ADP-Glo method inhibitory rate (%) human IP6K3. The essentials:
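Recombinant human IP6K (IP6K3 residues 1-410, E. coli, Ni-NTA purified) incubated with compound in 20 mM HEPES pH 7.5, 6 mM MgCl2, 0.01% Tween-20, 1 mM DTT for 60 min at room temperature. ADP formed read as luminescence by ADP-Glo.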

For another experiment, the target named is T3, human IP6K1 (Homo sapiens, UniProt Q92551).
T3 construct: human IP6K1 (1-441) gene; GST; made in house; host or cells: Sf-9 insect cells
The experiment can be described thus: IP6K enzyme inhibitory assay (ADP-Glo Kinase Assay), human IP6K1. The conditions noted are these: compound concentration 0.1 μM; read-out: ADP-Glo method inhibitory rate (%) human IP6K1. The procedure, abridged: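 Inhibition of human IP6K1 was determined with Promega's ADP-Glo Kinase Assay in 384 well plates. Test compound diluted in assay buffer (20 mM HEPES (pH 7.5), 6 mM MgCl2, 0.01% Tween-20, 1 mM DTT) was added at 2 μL, then 2 μL of enzyme started the reaction for 60 min at room temperature. Next came 3 μL ADP-Glo solution for 30 min and 6 μL Kinase-Detection solution for 60 min. Luminescence was read on an Envision plate reader.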

T3 sequence (Q92551 whole entry): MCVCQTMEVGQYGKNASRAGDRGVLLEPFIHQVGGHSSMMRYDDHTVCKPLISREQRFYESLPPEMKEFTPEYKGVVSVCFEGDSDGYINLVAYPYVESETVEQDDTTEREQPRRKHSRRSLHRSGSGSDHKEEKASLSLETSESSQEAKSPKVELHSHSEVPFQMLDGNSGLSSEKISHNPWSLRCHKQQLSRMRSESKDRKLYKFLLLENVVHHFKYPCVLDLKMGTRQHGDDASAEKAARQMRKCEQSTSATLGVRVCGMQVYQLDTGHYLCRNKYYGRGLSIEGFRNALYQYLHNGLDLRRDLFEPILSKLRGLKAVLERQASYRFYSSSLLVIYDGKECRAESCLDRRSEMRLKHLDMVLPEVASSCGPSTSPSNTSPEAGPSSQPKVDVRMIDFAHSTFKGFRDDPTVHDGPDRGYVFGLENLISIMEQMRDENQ

Consider `COc1ccc(O[C@H]2CC[C@@]3(CC2)C(=O)Nc2ccc(C(=O)O)cc23)cc1` [Example 49, (1r,4r)-4-(4-methoxyphenxoy)-2′-oxo-1′,2′-dihydrospiro[cyclohexane-1,3′-indole]-5′-carboxylic acid], for which the results for the inhibition at 0.1 µM at human IP6K2, on human IP6K3 and at human IP6K1 were 99%, 100% and 100%, respectively.
`Cc1cc(F)ccc1O[C@H]1CC[C@@]2(CC1)C(=O)Nc1ccc(C(=O)O)cc12` [Example 50, (1r,4r)-4-(4-fluoro-2-methylphenoxy)-2′-oxo-1′,2′-dihydrospiro[cyclohexane-1,3′-indole]-5′-carboxylic acid]: the inhibition at 0.1 µM was 100% on human IP6K2, 96% at human IP6K3 and 101% at human IP6K1.
On to `Cc1cc(O[C@H]2CC[C@@]3(CC2)C(=O)Nc2ccc(C(=O)O)cc23)ccc1F` [Example 51, (1r,4r)-4-(4-fluoro-3-methylphenoxy)-2′-oxo-1′,2′-dihydrospiro[cyclohexane-1,3′-indole]-5′-carboxylic acid], for which the values for the inhibition at 0.1 µM at human IP6K2, at human IP6K3 and at human IP6K1 were 97%, 96% and 98%, respectively.
The like results for `Cc1ccc(O[C@H]2CC[C@@]3(CC2)C(=O)Nc2ccc(C(=O)O)cc23)cc1F` [Example 52, (1r,4r)-4-(3-fluoro-4-methylphenoxy)-2′-oxo-1′,2′-dihydrospiro[cyclohexane-1,3′-indole]-5′-carboxylic acid] were, in that order, 100%, 96% and 99%.
For `Cc1cccc(O[C@H]2CC[C@@]3(CC2)C(=O)Nc2ccc(C(=O)O)cc23)c1F` [Example 53, (1r,4r)-4-(2-fluoro-3-methylphenoxy)-2′-oxo-1′,2′-dihydrospiro[cyclohexane-1,3′-indole]-5′-carboxylic acid], the inhibition at 0.1 µM at human IP6K2 turned out to be 96%; on human IP6K3, 97%; on human IP6K1, 96%.
As to `Cc1ccc(O[C@H]2CC[C@@]3(CC2)C(=O)Nc2ccc(C(=O)O)cc23)c(F)c1` [Example 54, (1r,4r)-4-(2-fluoro-4-methylphenoxy)-2′-oxo-1′,2′-dihydrospiro[cyclohexane-1,3′-indole]-5′-carboxylic acid], the inhibition at 0.1 µM at human IP6K2 is 100%; at human IP6K3, 101%; on human IP6K1, 99%.
In the case of `O=C(O)c1ccc2c(c1)[C@]1(CC[C@@H](Oc3ccc(F)c(F)c3)CC1)C(=O)N2` [Example 55, (1r,4r)-4-(3,4-difluorophenoxy)-2′-oxo-1′,2′-dihydrospiro[cyclohexane-1,3′-indole]-5′-carboxylic acid], the inhibition at 0.1 µM was found to be 95% on human IP6K2, 99% on human IP6K3 and 96% at human IP6K1.
For the compound `O=C(O)c1ccc2c(c1)[C@]1(CC[C@@H](Oc3cc(F)ccc3F)CC1)C(=O)N2` [Example 56, (1r,4r)-4-(2,5-difluorophenoxy)-2′-oxo-1′,2′-dihydrospiro[cyclohexane-1,3′-indole]-5′-carboxylic acid], the inhibition at 0.1 µM on human IP6K2 came to 92%; on human IP6K3, 99%; on human IP6K1, 97%.
The like results for `O=C(O)c1ccc2c(c1)[C@]1(CC[C@@H](Oc3ccc(F)cc3F)CC1)C(=O)N2` [Example 57, (1r,4r)-4-(2,4-difluorophenoxy)-2′-oxo-1′,2′-dihydrospiro[cyclohexane-1,3′-indole]-5′-carboxylic acid] were, in that order, 97%, 100% and 99%.
As to `O=C(O)c1ccc2c(c1)[C@]1(CC[C@@H](Oc3cc(F)cc(F)c3)CC1)C(=O)N2` [Example 58, (1r,4r)-4-(3,5-difluorophenoxy)-2′-oxo-1′,2′-dihydrospiro[cyclohexane-1,3′-indole]-5′-carboxylic acid], the figures for the inhibition at 0.1 µM on human IP6K2, on human IP6K3 and at human IP6K1 were 83%, 90% and 72%, respectively.
As for `O=C(O)c1ccc2c(c1)[C@]1(CC[C@@H](Oc3cccc(F)c3F)CC1)C(=O)N2` [Example 59, (1r,4r)-4-(2,3-difluorophenoxy)-2′-oxo-1′,2′-dihydrospiro[cyclohexane-1,3′-indole]-5′-carboxylic acid], the results for the inhibition at 0.1 µM on human IP6K2, at human IP6K3 and at human IP6K1 were 86%, 97% and 87%, respectively.
Take `N#Cc1cccc(O[C@H]2CC[C@@]3(CC2)C(=O)Nc2ccc(C(=O)O)cc23)c1F` [Example 60, (1r,4r)-4-(3-cyano-2-fluorophenoxy)-2′-oxo-1′,2′-dihydrospiro[cyclohexane-1,3′-indole]-5′-carboxylic acid]: the inhibition at 0.1 µM on human IP6K2 amounted to 90%; at human IP6K3, 98%; on human IP6K1, 87%.
`N#Cc1ccc(O[C@H]2CC[C@@]3(CC2)C(=O)Nc2ccc(C(=O)O)cc23)cc1F` [Example 61, (1r,4r)-4-(4-cyano-3-fluorophenoxy)-2′-oxo-1′,2′-dihydrospiro[cyclohexane-1,3′-indole]-5′-carboxylic acid]: the inhibition at 0.1 µM was 95% on human IP6K2, 100% at human IP6K3 and 100% at human IP6K1.
Take `N#Cc1cccc(F)c1O[C@H]1CC[C@@]2(CC1)C(=O)Nc1ccc(C(=O)O)cc12` [Example 62, (1r,4r)-4-(2-cyano-6-fluorophenoxy)-2′-oxo-1′,2′-dihydrospiro[cyclohexane-1,3′-indole]-5′-carboxylic acid]: the inhibition at 0.1 µM amounted to 91% at human IP6K2, 99% at human IP6K3 and 95% at human IP6K1.
Taken in the same sequence, the figures for `N#Cc1c(F)cccc1O[C@H]1CC[C@@]2(CC1)C(=O)Nc1ccc(C(=O)O)cc12` [Example 63, (1r,4r)-4-(2-cyano-3-fluorophenoxy)-2′-oxo-1′,2′-dihydrospiro[cyclohexane-1,3′-indole]-5′-carboxylic acid] were 87%, 96% and 69%.
Regarding `O=C(O)c1ccc2c(c1)[C@]1(CC[C@@H](Oc3cc(F)cc(Cl)c3)CC1)C(=O)N2` [Example 64, (1r,4r)-4-(3-chloro-5-fluorophenoxy)-2′-oxo-1′,2′-dihydrospiro[cyclohexane-1,3′-indole]-5′-carboxylic acid], the inhibition at 0.1 µM at human IP6K2 turned out to be 93%; at human IP6K3, 94%; at human IP6K1, 80%.
On to `O=C(O)c1ccc2c(c1)[C@]1(CC[C@@H](Oc3cc(F)ccc3Cl)CC1)C(=O)N2` [Example 65, (1r,4r)-4-(2-chloro-5-fluorophenoxy)-2′-oxo-1′,2′-dihydrospiro[cyclohexane-1,3′-indole]-5′-carboxylic acid], for which the figures for the inhibition at 0.1 µM on human IP6K2, on human IP6K3 and at human IP6K1 were 95%, 97% and 93%, respectively.
Regarding `O=C(O)c1ccc2c(c1)[C@]1(CC[C@@H](Oc3ccc(Cl)cc3F)CC1)C(=O)N2` [Example 66, (1r,4r)-4-(4-chloro-2-fluorophenoxy)-2′-oxo-1′,2′-dihydrospiro[cyclohexane-1,3′-indole]-5′-carboxylic acid], the values for the inhibition at 0.1 µM on human IP6K2, at human IP6K3 and on human IP6K1 were 100%, 96% and 99%, respectively.

(Values after patent publication US10968178B2, “IP6K inhibitors” (TAKEDA PHARMACEUTICAL COMPANY LIMITED, priority 2017, dated 2021).)
